# Source: patent publication US7501440B2, “Substituted benzoylureidopyridylpiperidine-and-pyrrolidinecarboxylic acid derivatives, processes for preparing them and their use” (Sanofi-Aventis Deutschland GmbH, priority 2003, dated 2009)
# pIC50: −log10 of the molar value.
# Legend:
# [1] = molecular target: T1, human glycogen phosphorylase a (Homo sapiens, UniProt P06737); experiment: Glycogen phosphorylase a activity test; type: biochemical; details: inhibition of GPa in vitro, reverse direction (glycogen synthesis from glucose 1-phosphate, release of inorganic phosphate)
# T1 sequence (P06737 1-847): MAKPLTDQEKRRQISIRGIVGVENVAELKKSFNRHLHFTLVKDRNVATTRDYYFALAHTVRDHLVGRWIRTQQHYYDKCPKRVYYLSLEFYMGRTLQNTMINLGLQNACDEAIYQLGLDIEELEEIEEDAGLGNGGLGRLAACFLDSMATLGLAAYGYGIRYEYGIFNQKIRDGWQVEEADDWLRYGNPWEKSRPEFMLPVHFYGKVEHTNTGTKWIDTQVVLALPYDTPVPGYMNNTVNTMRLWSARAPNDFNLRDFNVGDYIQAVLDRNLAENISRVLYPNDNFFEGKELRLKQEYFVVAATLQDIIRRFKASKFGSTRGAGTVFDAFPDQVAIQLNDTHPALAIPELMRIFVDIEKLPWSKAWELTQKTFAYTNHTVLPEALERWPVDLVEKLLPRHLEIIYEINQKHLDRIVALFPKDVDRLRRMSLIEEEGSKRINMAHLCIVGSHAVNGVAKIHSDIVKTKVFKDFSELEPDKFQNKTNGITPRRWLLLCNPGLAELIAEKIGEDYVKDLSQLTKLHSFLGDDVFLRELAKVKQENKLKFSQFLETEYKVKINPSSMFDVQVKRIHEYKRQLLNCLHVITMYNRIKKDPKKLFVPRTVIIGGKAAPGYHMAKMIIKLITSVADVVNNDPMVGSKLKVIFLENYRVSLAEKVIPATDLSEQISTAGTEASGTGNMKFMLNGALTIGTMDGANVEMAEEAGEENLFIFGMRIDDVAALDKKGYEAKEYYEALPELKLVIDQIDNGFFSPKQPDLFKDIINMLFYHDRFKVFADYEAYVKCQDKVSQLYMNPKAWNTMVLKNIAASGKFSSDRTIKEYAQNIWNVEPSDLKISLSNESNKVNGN
# Procedure: Glycogen Phosphorylase a Activity Test
# The effect of compounds on the activity of the active form of glycogen phosphorylase (GPa) was measured in the reverse direction by monitoring the synthesis of glycogen from glucose 1-phosphate by determining the release of inorganic phosphate. All reactions were carried out as duplicate determinations in 96-well microtiter plates (half area plates, Costar No. 3696), and the change in absorption as a consequence of the formation of the reaction product was measured at the wavelength specified below in a Multiskan Ascent Elisa Reader (Lab Systems, Finland). In order to measure the GPa enzyme activity in the reverse direction, the conversion of glucose 1-phosphate to glycogen and inorganic phosphate was measured by the general method of Engers et al. (Engers H D, Shechosky S, Madsen N B, Can J Biochem 1970 July; 48(7):746-754) with the following modifications: human glycogen phosphorylase a (for example containing 0.76 mg of protein/ml (Aventis Pharma Deutschland GmbH), dissolved in buffer solution E (25 mM β-glycerophosphate, pH 7.0, 1 mM EDTA and 1 mM dithiothreitol) was diluted to a concentration of 10 μg of protein/ml with buffer T (50 mM Hepes, pH 7.0, 100 mM KCI, 2.5 mM EDTA, 2.5 mM MgCl2·6H2O) and addition of 5 mg/ml of glycogen. Test substances were prepared as a 10 mM solution in DMSO and diluted to 50 μM with buffer solution T. To 10 μl of this solution were added 10 μl of 37.5 mM glucose dissolved in buffer solution T and 5 mg/ml of glycogen, and also 10 μl of a solution of human glycogen phosphorylase a (10 μg of protein/ml) and 20 μl of 2.5 mM glucose 1-phosphate. The base value of the activity of glycogen phosphorylase a in the absence of test substance was determined by adding 10 μl of buffer solution T (0.1% DMSO). The mixture was incubated at room temperature for 40 minutes and the released inorganic phosphate was determined by means of the general method of Drueckes et al. (Drueckes P, Schinzel R, Palm D, Anal Biochem 1995 September 1;230(1):173-177) with the following modifications: 50 μl of a stop solution of 7.3 mM of ammonium molybdate, 10.9 mM of zinc acetate, 3.6% of ascorbic acid, 0.9% of SDS are added to 50 μl of the enzyme mixture. After 60 minutes of incubation at 45° C., the absorption was measured at 820 nm. To determine the background absorption, the stop solution was added immediately after the addition of the glucose 1-phosphate solution in a separate reaction. […]
SMILES,pIC50 [1],melting point
"O=C(NC(=O)c1ccc(F)cc1Cl)Nc1cccnc1N1CCC(C(=O)O)CC1 [Example 1, 3′-[3-(2-Chloro-4-fluorobenzoyl)ureido]-3,4,5,6-tetrahydro-2H-[1,2′]bipyridinyl-4-carboxylic acid]",7.40,–
"O=C(NC(=O)c1cc(F)c(F)cc1Cl)Nc1cccnc1N1CCC(C(=O)O)(c2ccccc2)CC1 [Example 6, 3′-[3-(2-Chloro-4,5-difluorobenzoyl)ureido]-4-phenyl-3,4,5,6-tetrahydro-2H-[1,2′]bipyridinyl-4-carboxylic acid]",–,250.9 °C
"O=C(NC(=O)c1cc(F)c(F)cc1Cl)Nc1cccnc1N1CCC(C(=O)O)CC1 [Example 2, 3+-[3-(2-Chloro-4,5-difluorobenzoyl)ureido]-3,4,5,6-tetrahydro-2H-[1,2′]bipyridinyl-4-carboxylic acid]",8.00,–
"O=C(NC(=O)c1cc(F)c(F)cc1Cl)Nc1cccnc1N1CCC(C(=O)NCCO)CC1 [Example 5, N-(2-hydroxyethyl)-3′-[3-(2-chloro-4,5-difluorobenzoyl)ureido]-3,4,5,6-tetrahydro-2H-[1,2′]bipyridinyl-4-carboxamide]",5.44,–

# Other lines, results leading:
pIC50 [1],melting point,SMILES
6.80,–,"NC(=O)C1CCN(c2ncccc2NC(=O)NC(=O)c2cc(F)c(F)cc2Cl)CC1 [Example 4, 3′-[3-(2-Chloro-4,5-difluorobenzoyl)ureido]-3,4,5,6-tetrahydro-2H-[1,2′]bipyridinyl-4-carboxamide]"
–,195.9 °C,"COC(=O)C1CCN(c2ncccc2NC(=O)NC(=O)c2cc(F)c(F)cc2Cl)CC1 [Example 3, Methyl 3′-[3-(2-chloro-4,5-difluorobenzoyl)ureido]-3,4,5,6-tetrahydro-2H-[1,2′]bipyridinyl-4-carboxylate]"
